Reference: ChEMBL document CHEMBL1156448, “Identification of an efficacy switch region in the ghrelin receptor responsible for interchange between agonism and inverse agonism” (J Biol Chem, 2007)

Tests used:
[1] = target: T1, Growth hormone secretagogue receptor type 1 (Homo sapiens, UniProt Q92847); test: Inverse agonist activity at human ghrelin receptor expressed in african green monkey COS7 cells assessed as constitutively stimulated inositol phosphate accumulation; format: functional, cell-based, COS-7
[2] = target: T1, Growth hormone secretagogue receptor type 1; test: Displacement of [35S]MK677 from human ghrelin receptor expressed in african green monkey COS7 cells; format: cell-based, COS-7

T1 sequence (Q92847 whole entry): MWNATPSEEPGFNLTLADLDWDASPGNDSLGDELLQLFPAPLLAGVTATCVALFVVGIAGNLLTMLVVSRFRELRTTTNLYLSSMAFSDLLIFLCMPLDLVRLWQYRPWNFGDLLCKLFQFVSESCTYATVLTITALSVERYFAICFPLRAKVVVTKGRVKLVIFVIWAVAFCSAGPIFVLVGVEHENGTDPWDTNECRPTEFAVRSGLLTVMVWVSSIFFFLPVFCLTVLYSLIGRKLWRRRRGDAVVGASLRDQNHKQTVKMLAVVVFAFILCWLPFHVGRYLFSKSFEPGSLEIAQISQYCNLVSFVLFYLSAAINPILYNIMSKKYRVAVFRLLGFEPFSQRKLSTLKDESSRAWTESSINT

SMILES	IC50 [1] [nM]	IC50 [2] [nM]
CC(C)C[C@H](NC(=O)[C@H](CC(C)C)NC(=O)[C@@H](Cc1c[nH]c2ccccc12)NC(=O)[C@H](Cc1ccccc1)NC(=O)[C@@H](Cc1c[nH]c2ccccc12)NC(=O)[C@@H](N)CC(=O)O)C(N)=O	260	60
CC(C)C[C@H](NC(=O)[C@H](CC(C)C)NC(=O)[C@@H](Cc1c[nH]c2ccccc12)NC(=O)[C@H](Cc1ccccc1)NC(=O)[C@@H](Cc1c[nH]c2ccccc12)NC(=O)[C@@H](N)CCCN=C(N)N)C(N)=O	21	12
C[C@H](NC(=O)[C@H](C)NC(=O)[C@@H](Cc1c[nH]c2ccccc12)NC(=O)[C@H](Cc1ccccc1)NC(=O)[C@H](N)Cc1c[nH]c2ccccc12)C(N)=O	> 1000	> 1000
